Data reported in patent US8580297B2, “Components for producing amphoteric liposomes” (Marina Biotech, Inc., priority 2002, dated 2013).

Experiment: Zeta potential profile at varying pH of amphoteric liposomes (zero point = isoelectric point)
Assay type: physicochemical
Details: liposomes of 2 mg lipid and 10 mg DMPC; buffer 10 mM Kac, 10 mM HEPES, 150 mM NaCl; extruded 200 nm; value is a pH
Protocol: FIG. 1 is a graph showing a profile of the zeta potential in mV at varying pH values for the amphoteric liposomes prepared according to Example 4.
2 mg of the corresponding lipid and 10 mg of DMPC are dissolved in 4 ml of chloroform/methanol (1:1 v/v) and dried completely in a rotary evaporator. The lipid film is hydrated with 4.3 ml of buffer (10 mM Kac, 10 mM HEPES, 150 mM NaCl, pH 7.5) at a lipid concentration of 5 mM using ultrasonic treatment for 5 minutes. Finally, the suspension is frozen and, following thawing, subjected to multiple extrusions (Avestine LiposoFast, polycarbonate filter, pore width 200 nm). The profile of the zeta potential in mV at varying pH values is illustrated in FIG. 1. The zero point indicates the pH value at which the liposome is discharged. This pH corresponds to the isoelectric point of the lipid and is 4.5 for #8, 5.2 for #34, 5.7 for #25.

Row | Compound | isoelectric point of the lipid (pH value at which the liposome is discharged, zero point of zeta potential)
1 | CCCCCCCC/C=C\CCCCCCCC(=O)OCC(CN(CCC(=O)O)CCC(=O)O)OC(=O)CCCCCCC/C=C\CCCCCCCC (centres unmarked) [#8, N,N-bis(propanoic acid-3-yl)-N-(2,3-dioleoyloxypropyl)amine] | 4.5
2 | CCCC(=O)OC(COC(=O)CC)OP(=O)(O)OCCNCCC(=O)NC(Cc1c[nH]cn1)C(=O)O (centres unmarked) [#25, phosphatidyl glycerylcarnosine] | 5.7
